Data on four molecules can be found in patent US4994459A, “Aryloxypropane substituted piperazine derivatives with antiarrhythmic and antifibrillatory activity” (American Home Products Corporation, priority 1989, dated 1991).

One test has as its system Purkinje fiber. The test is described as follows: Cardiac electrophysiology in vitro, dog Purkinje fibers (action potential parameters). It is filed as cell-based. Also noted: unit not given here. The conditions noted are these: 3 μM. How it is done:
The compounds of this invention display a Class III antiarrhythmic profile. The Class III antiarrhythmic activity was established in vitro and in vivo in accordance with the following standard test procedures. Bundles of free-running Purkinje fibers with attached myocardium obtained from either ventricle of adult dog heart were pinned without stretching to the bottom of a 10 mL tissue chamber and continuously superfused with oxygenated Tyrode's solution at a flow rate of 5 mL/min. The composition of the Tyrode's solution was (mM): NaCl, 138; KCl 4; CaCl2, 2; MgCl2 0.5; NaHCO3, 24; dextrose, 5.5. The solution was aerated with 95% O2 -5% CO2 at 37° C. Bath temperature was maintained at 37±0.5° C. by circulating the pre-warmed superfusate through a thermostatically controlled water bath immediately prior to entering the tissue chamber. The preparations were stimulated through bipolar Teflon-coated silver wires, bared at the tips, placed on the endocardial surface of the attached myocardium, using a digital stimulator set to deliver constant current pulses 1.5-msec in duration at cycle lengths of 300 or 1000 msec. Stimulus strength was set at approximately 2×diastolic threshold, and adjusted as required throughout the experiment. All preparations were allowed to equilibrate in the tissue chamber for at least 1 hour before measurements were begun. Subsequently, a minimum of 60 minutes were allowed for equilibration with each drug-containing superfusate before post-drug measurements were made. Impalements were made at 6 to 10 sites throughout the preparation before and after drug exposure. Offset potentials were rechecked after each impalement. Glass microelectrodes filled with 3M KCl were coupled to high impedance negative capacitance electrometers and Ag/AgCl half-cells used as reference electrodes. The first derivative of the action potential upstroke (Vmax) was obtained using an analog differentiator circuit, coupled to a peak-hold circuit that retained the recorded value of Vmax for 30 to 70-msec. […] In addition, chart paper recordings of Vmax were obtained using the peak-hold device output. Fresh stock solutions of drug were prepared for each experiment. […] Action potential (AP) parameters measured included: diastolic take-off potential or activation voltage, (Vact); AP overshoot (Vos); AP duration measured as the time taken to repolarize to -20 mV (APD-20),-60 mV (APD-60), and -80 mV (APD-80); and maximal upstroke velocity (Vmax). An increase in APD-60 that occurred without a significant change in Vmax was taken, by definition, to indicate Class III antiarrhythmic activity "in vitro".

The test system of a further test is Anesthetized Dog. In words: Cardiac electrophysiology in anesthetized dogs (refractory periods, conduction times, heart rate, blood pressure). The conditions noted are these: 5 mg/kg i.v.; for ACT (atrial conduction time), change / AERP (refractory period of the right atrium), change / VCT (ventricular conduction time), change / VERP (refractory period of the right ventricle), change: BCL = 300, Example 1 n = 3; for BP, change / HR, change: Example 1 n = 3. Set-up: ACT (atrial conduction time), change / VCT (ventricular conduction time), change / BP, change: unit not given here. It is filed as in vivo. How it is done:
The compounds of this invention display a Class III antiarrhythmic profile. The Class III antiarrhythmic activity was established in vitro and in vivo in accordance with the following standard test procedures. Mongrel dogs of both sexes weighing 12 to 18 kg were anesthetized with sodium pentobarbital (35 mg/kg i.v. supplemented with 5 mg/kg/h) and artificially ventilated with room air (minute volume: 200 mL/kg). The heart was exposed by a right thoractomy performed at the fifth intercostal space and suspended in a pericardial cradle. Epicardial electrodes for stimulation and recording were sutured to the free wall of the lower right atrium and near the base of the right ventricle. Each electrode set contained a linear array of electrodes consisting of 1 bipolar stimulating electrode and 2 bipolar recording electrodes embedded in a rigid acrylic matrix. The stimulating bipole was 7 mm from the proximal recording electrode, which in turn was 10 mm from the distal recording bipole. Each electrode array was oriented to be parallel to the epicardial fiber axis. […] Conduction times and refractory periods were measured during pacing at a cycle length of 300 msec. The dog heart was paced by a stimulator driving a constant current isolation unit. […] Diastolic threshold was determined before and after each trial. Refractory periods of the right atrium and right ventricle ([…]) were determined by introducing an extrastimulus (S2) every 8 paced beats (S1). The extrastimulus was followed by a 4-second rest interval during which no pacing occurred. Both S1 and S2 were of identical intensity (twice threshold) and duration (2 msec). […] This S1 -S2 interval was considered to define effective refractory period. Atrial and ventricular (ACT and VCT) conduction times were measured as the time interval between the 2 electrograms recorded at the proximal and distal sites of the recording electrode array. The time of activation for electrograms with predominantly biphasic complexes was taken as the moment when the trace crossed the zero reference line, and for triphasic complexes, as the peak of the major deflection. Animals received the test compound by i.v. injection. Drugs were administered cumulatively at the following dose levels: 1, 2.5, 5, 7.5, 10 mg/kg. Each dose was administered over a 3 minute period. Electrophysiologic testing was performed 15 minutes following the end of dosing. Every 30 minutes the dog received the next incremental dose. […] An increase in ERP that occurred without a significant decrease of CT was taken, by definition to indicate "in vivo" Class III antiarrhythmic activity.

The test system of test [1] is Pigs (Durrock-Landrace cross). In words: Coronary occlusion-reperfusion in anesthetized pigs (20 min LAD occlusion, then reperfusion; survival). Format: in vivo, pig. The note with it: 20 minutes before LAD occlusion. As to the method: Pigs (Durrock-Landrace cross) of either sex weighing 12 to 24 kg were anesthetized by administration of sodium pentobarbital. (35 mg/kg i.p. and supplemented with 5 mg/kg/hr. i.v.) and ventilated with room air following tracheotomy (minute volume: 200 mL/kg). The left femoral artery and vein were cannulated for the recording of blood pressure and for drug administration, respectively. Blood pressure and lead II EKG were recorded on a chart recorder.
The heart was exposed by a left thoracotomy performed at the fifth intercostal space. A silk ligature was placed beneath the left anterior descending coronary artery (LAD) about 1.5 cm from its origin and distal to the septal artery branch. The artery was occluded by lifting the vessel with the ligature and quickly placing a bull-dog clamp (3×12 mm padded jaws) over the artery. The clamp remained in place for a period of 20 minutes. Removal of the clamp produced a rapid reperfusion of the ischemic myocardium as evidenced by the return of normal color to the myocardium distal to the site of occlusion. Ectopic activity was monitored during occlusion and reperfusion by recording the lead II EKG at chart speeds of 5 to 25 mm/second. Animals were allowed to stabilize for at least 30 minutes prior to drug administration.
Pigs were randomized into groups receiving either vehicle or test drug at a given dose (1-5 mg/kg i.v.) 20 minutes before LAD occlusion. Animals surviving the period of occlusion were subsequently reperfused. No attempt was made to resuscitate animals experiencing ventricular fibrillation (VF) at any time following occlusion. In the absence of treatment, less than 30 percent of the animals survive the 20 minute period of occlusion, with a mean time to death onset of 8 to 12 minutes. Effective compounds either prevent death due to VF or prolong survival time.

For test [2] the following is noted: dextro enantiomer; Taggart et al. 1985, McComb et al. 1985; cited from earlier work.

For the molecule `Cl.Cl.O=[N+]([O-])c1ccc(OCC(O)CN2CCN(c3ccccn3)CC2)cc1` (racemic) [Example 1, α-[(4-Nitrophenoxy)methyl]-4-(2-pyridinyl)-1-piperazineethanol Dihydrochloride], in the test with Purkinje fiber (BCL = 300, Example 1 n = 2), the “APD-60 (AP duration, time to repolarize to -60 mV), change” value came out at 15 and the “Vmax (maximal upstroke velocity), change” value was -19. Also, in the test with Purkinje fiber (BCL = 1000, Example 1 n = 3), the “APD-60 (AP duration, time to repolarize to -60 mV), change” value amounted to 29 ± 6 and the “Vmax (maximal upstroke velocity), change” value is reported as -8 ± 5. In the test with Anesthetized Dog, the “ACT (atrial conduction time), change” value is reported as 16 ± 1; the “AERP (refractory period of the right atrium), change” value (from here on “AERP … change”) was determined as 69 ± 7; the “VCT (ventricular conduction time), change” value (“VCT … change” below) is on record as -7 ± 9; the “VERP (refractory period of the right ventricle), change” value (from here on “VERP … change”) was 25 ± 3. Further, in the test with Anesthetized Dog, the “BP, change” value is given as -33 ± 9 and the “HR, change” value was -33 ± 1. Moreover, in test [1] (2.5 mg/Kg i.v.), the “Fraction of pigs surviving 20 min. occlusion” value was 1/4 and the “Fraction of pigs surviving reperfusion” value is 0/4. Also, in test [1] (5 mg/Kg i.v.), the “Fraction of pigs surviving 20 min. occlusion” value is recorded as 4/4 and the “Fraction of pigs surviving reperfusion” value is recorded as 2/4.
For `CC(C)NCC(O)c1ccc(NS(C)(=O)=O)cc1` (centres unmarked) [Sotalol, 4-(2-isopropylamino-1-hydroxyethyl)-methane-sulfonamide], the “selective Class III antiarrhythmic activity” value in test [2] was “selective Class III antiarrhythmic activity”.
As to `CS(=O)(=O)Nc1ccc(OCC(O)CN2CCN(c3ccccn3)CC2)cc1` (centres unmarked) [Example 5, N-[4-[2-Hydroxy-3-[4-(2-pyridinyl)-1-piperazinyl]propoxy]phenyl]methanesulfonamide], in the test with Purkinje fiber (BCL = 300, Example 1 n = 2), the “APD-60 (AP duration, time to repolarize to -60 mV), change” value is reported as 30 and the “Vmax (maximal upstroke velocity), change” value was 7. Moreover, in the test with Purkinje fiber (BCL = 1000, Example 1 n = 3), the “APD-60 (AP duration, time to repolarize to -60 mV), change” value came out at 50 and the “Vmax (maximal upstroke velocity), change” value is reported as 14. For the same molecule, in the test on Anesthetized Dog, the “ACT (atrial conduction time), change” value is on record as 6; the “AERP … change” value was determined as 56; the “VCT … change” value is 3; the “VERP … change” value came to 13. Further, in the test on Anesthetized Dog, the “BP, change” value is -25 and the “HR, change” value is -15.
On to `CS(=O)(=O)Nc1ccc(OCC(O)CN2CCN(c3ncccn3)CC2)cc1` (centres unmarked) [Example 4, N-[4-[2-Hydroxy-3-[4-(2-pyrimidinyl)-1-piperazinyl]-propoxy]phenyl]methanesulfonamide], for which, in the test with Purkinje fiber (BCL = 300, Example 1 n = 2), the “APD-60 (AP duration, time to repolarize to -60 mV), change” value is given as 16 and the “Vmax (maximal upstroke velocity), change” value is listed as -12. Further, in the test on Purkinje fiber (BCL = 1000, Example 1 n = 3), the “APD-60 (AP duration, time to repolarize to -60 mV), change” value is on record as 33 and the “Vmax (maximal upstroke velocity), change” value is given as -17. For the same molecule, in the test with Anesthetized Dog, the “ACT (atrial conduction time), change” value is on record as -4; the “AERP … change” value turned out to be 24; the “VCT … change” value came out at 0; the “VERP … change” value was determined as 13. For the same molecule, in the test on Anesthetized Dog, the “BP, change” value is given as -16 and the “HR, change” value is on record as -14.
